Counter-ions that a name gives are not always drawn. Like-named read-outs stand apart in the source and are kept apart here.
How the values were obtained:
CDK2/Cyclin A = CDK2/Cyclin A (Homo sapiens, UniProt P24941); assay: Inhibition of CDK2/Cyclin A Retinoblastoma Kinase Activity; format: biochemical; details: for CDK2 % Inhibition At 0.03 μM: Table 2; for Ki: apparent Ki, CDK2/proteolyzed cyclin A, Rb fragment substrate, 25 μM ATP
Summary of the method: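 Percent inhibition is calculated against DMSO-only wells after subtracting no-enzyme background. The enzyme is human CDK2 complexed with proteolyzed cyclin A, used at 10 nM or 19 nM on an Rb fragment with 25 μM [32/33P]ATP, at pH 7.4 and 30° C.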

[1] = biological target: human CDK4 and genetically truncated (1-264) cyclin D3 (Homo sapiens, UniProt P11802); assay: Inhibition of CDK4/Cyclin D Retinoblastoma Kinase Activity; format: biochemical; details: for Ki: apparent Ki, CDK4/truncated cyclin D3, Rb fragment substrate, 25 μM ATP
Summary of the method: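 Apparent Ki values derive from fitting activity at varied inhibitor concentrations to a competitive (or competitive tight-binding) model. Kinase reactions used 5 nM CDK4/cyclin D3(1-264), Rb fragment substrate and 25 μM ATP. Incubation ran 20 min at 30 °C, extended to 60 min under linear conditions for tight binders.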

HCT-116 cell line = assay: Inhibition of cell growth, tetrazolium salt (MTT) assay; format: cell-based; details: for HCT-116 % Inhibition at 0.25 μM: 0.25 μM compound; for IC50: Homo sapiens, HCT-116, 120 h, MTT, three to five days, read-out: HCT-116 IC50
Summary of the method: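 McCoy's 5A cultures; 4 h pre-incubation; compound dilutions in 0.5% v/v DMSO; 3–5 d, 37° C, 5% CO2; MTT 0.2 mg/mL final, 4 h; formazan dissolved in DMSO, A540; vs 0.5% DMSO vehicle.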

[2] = 0.1 μM compound, HCT-116, Table 4
[3] = 0.1 μM compound, HCT-116, Table 3

Sequence of human CDK4 and genetically truncated (1-264) cyclin D3 (P11802 whole entry, the tested form may be a part): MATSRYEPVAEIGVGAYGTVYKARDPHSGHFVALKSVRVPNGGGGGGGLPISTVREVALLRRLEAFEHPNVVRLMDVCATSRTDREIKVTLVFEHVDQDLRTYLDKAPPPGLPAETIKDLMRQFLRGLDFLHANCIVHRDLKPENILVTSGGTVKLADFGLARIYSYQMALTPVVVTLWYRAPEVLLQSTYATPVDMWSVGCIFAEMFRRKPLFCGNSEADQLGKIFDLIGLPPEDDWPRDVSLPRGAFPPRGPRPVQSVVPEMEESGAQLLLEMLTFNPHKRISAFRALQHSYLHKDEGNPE
Sequence of human CDK4 and genetically truncated (1-264) cyclin D3 (P30281 1-264 partner): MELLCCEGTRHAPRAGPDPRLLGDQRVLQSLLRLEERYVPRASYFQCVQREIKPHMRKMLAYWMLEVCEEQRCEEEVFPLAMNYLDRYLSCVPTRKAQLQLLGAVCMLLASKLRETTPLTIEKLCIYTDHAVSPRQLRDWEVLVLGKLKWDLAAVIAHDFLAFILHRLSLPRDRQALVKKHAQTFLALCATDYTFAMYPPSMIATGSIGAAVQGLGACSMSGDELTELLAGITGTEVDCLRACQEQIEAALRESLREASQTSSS

COC(=O)[C@H](CC(C)C)NC(=O)N1CCC(Nc2nc(N)c(C(=O)c3c(F)cccc3F)s2)CC1 [Example O77]
CDK2 % Inhibition At 0.03 μM (CDK2/Cyclin A; 0.03 μM compound): 24% | CDK4 % Inhibition at 0.03 μM ([1]; 0.03 μM compound, Table 2): 8% | HCT-116 % Inhibition at 0.25 μM (HCT-116 cell line; HCT-116, Table 2): 43%

Nc1nc(NC2CCN(C(=O)CCC3CCCCC3)CC2)sc1C(=O)c1c(F)cccc1F [Example R101]
CDK2 % Inhibition at 0.03 μM (CDK2/Cyclin A; at 0.03 μM): 15% | CDK4 % Inhibition at 0.03 μM ([1]; at 0.03 μM): 39% | HCT-116 % Inhibition at 0.1 μM (HCT-116 cell line; HCT-116 cells, at 0.1 μM): 7% | HCT-116 5 Inhibition at 0.25 μM (HCT-116 cell line; HCT-116 cells): 45

Nc1nc(NC2CCN(Cc3ccccn3)CC2)sc1C(=O)c1c(F)cccc1F [Example M1, 1-[4-Amino-2-(1-pyridin-2-ylmethyl-piperidin-4-ylamino)-thiazol-5-yl]-1-(2,6-difluoro-phenyl)-methanone]
Ki (CDK2/Cyclin A): > 500 nM | Ki [1]: 240 nM | IC50 (HCT-116 cell line; first HCT-116 column (c4)): 2800 nM | IC50 (HCT-116 cell line; second HCT-116 column (c5)): 5000 nM

CC(=Cc1ccccc1)C(=O)N1CCC(Nc2nc(N)c(C(=O)c3c(F)cccc3F)s2)CC1 [Example R161]
CDK2 % Inhibition at 0.03 μM (CDK2/Cyclin A; at 0.03 μM): 26% | CDK4 % Inhibition at 0.03 μM ([1]; at 0.03 μM): 53% | HCT-116 % Inhibition at 0.1 μM (HCT-116 cell line; HCT-116 cells, at 0.1 μM): 0% | HCT-116 5 Inhibition at 0.25 μM (HCT-116 cell line; HCT-116 cells): 34

Nc1nc(NC2CCN(C(=O)c3ccccc3[N+](=O)[O-])CC2)sc1C(=O)c1c(F)cccc1F [Example Q68]
CDK2 % Inhibition at 0.03 μM (CDK2/Cyclin A; 0.03 μM compound, Table 4): 41% | CDK4 % Inhibition at 0.03 μM ([1]; 0.03 μM compound, Table 4): 51% | HCT-116 % Inhibition at 0.1 μM (HCT-116 cell line; [2]): 4% | HCT-116 % Inhibition at 0.25 μM (HCT-116 cell line; HCT-116, Table 4): 33%

CC(=O)OCC(=O)N1CCC(Nc2nc(N)c(C(=O)c3c(F)cccc3F)s2)CC1 [Example Q76]
CDK2 % Inhibition at 0.03 μM (CDK2/Cyclin A; 0.03 μM compound, Table 4): 27% | CDK4 % Inhibition at 0.03 μM ([1]; 0.03 μM compound, Table 4): 31% | HCT-116 % Inhibition at 0.1 μM (HCT-116 cell line; [2]): 4% | HCT-116 % Inhibition at 0.25 μM (HCT-116 cell line; HCT-116, Table 4): 36%

CC(C)=CC(=O)N1CCC(Nc2nc(N)c(C(=O)c3c(F)cccc3F)s2)CC1 [Example Q44]
CDK2 % Inhibition at 0.03 μM (CDK2/Cyclin A; 0.03 μM compound, Table 4): −19% | CDK4 % Inhibition at 0.03 μM ([1]; 0.03 μM compound, Table 4): 17% | HCT-116 % Inhibition at 0.1 μM (HCT-116 cell line; [2]): 0% | HCT-116 % Inhibition at 0.25 μM (HCT-116 cell line; HCT-116, Table 4): 30%

N#Cc1ccc(S(=O)(=O)N2CCC(Nc3nc(N)c(C(=O)c4c(F)cccc4F)s3)CC2)cc1 [Example P47]
CDK2 % Inhibition at 0.03 μM (CDK2/Cyclin A; 0.03 μM compound, Table 3): 81% | CDK4 % Inhibition at 0.03 μM ([1]; 0.03 μM compound, Table 3): 82% | HCT-116 % Inhibition at 0.1 μM (HCT-116 cell line; [3]): 0% | HCT-116 % Inhibition at 0.25 μM (HCT-116 cell line; HCT-116, Table 3): 26%

Nc1nc(NC2CCN(S(=O)(=O)c3cccc4nsnc34)CC2)sc1C(=O)c1c(F)cccc1F [Example P62]
CDK2 % Inhibition at 0.03 μM (CDK2/Cyclin A; 0.03 μM compound, Table 3): 74% | CDK4 % Inhibition at 0.03 μM ([1]; 0.03 μM compound, Table 3): 70% | HCT-116 % Inhibition at 0.1 μM (HCT-116 cell line; [3]): 22% | HCT-116 % Inhibition at 0.25 μM (HCT-116 cell line; HCT-116, Table 3): 26%

Nc1nc(NC2CCN(S(=O)(=O)c3ccc(S(=O)(=O)c4ccccc4)s3)CC2)sc1C(=O)c1c(F)cccc1F [Example P42]
CDK2 % Inhibition at 0.03 μM (CDK2/Cyclin A; 0.03 μM compound, Table 3): 55% | CDK4 % Inhibition at 0.03 μM ([1]; 0.03 μM compound, Table 3): 62% | HCT-116 % Inhibition at 0.1 μM (HCT-116 cell line; [3]): 3% | HCT-116 % Inhibition at 0.25 μM (HCT-116 cell line; HCT-116, Table 3): 19%

COc1ccc(C(=O)N2CCC(Nc3nc(N)c(C(=O)c4c(F)cccc4F)s3)CC2)c(OC)c1 [Example R116]
CDK2 % Inhibition at 0.03 μM (CDK2/Cyclin A; at 0.03 μM): 49% | CDK4 % Inhibition at 0.03 μM ([1]; at 0.03 μM): 67% | HCT-116 % Inhibition at 0.1 μM (HCT-116 cell line; HCT-116 cells, at 0.1 μM): 9% | HCT-116 5 Inhibition at 0.25 μM (HCT-116 cell line; HCT-116 cells): 44

Nc1nc(NC2CCN(C(=O)c3ccncc3)CC2)sc1C(=O)c1c(F)cccc1F [Example C13]
Ki (CDK2/Cyclin A): 53 nM | Ki [1]: 18 nM | IC50 (HCT-116 cell line; first HCT-116 column (c4)): 2800 nM | IC50 (HCT-116 cell line; second HCT-116 column (c5)): 5000 nM

N#Cc1cccc(S(=O)(=O)N2CCC(Nc3nc(N)c(C(=O)c4c(F)cccc4F)s3)CC2)c1 [Example P77]
CDK2 % Inhibition at 0.03 μM (CDK2/Cyclin A; 0.03 μM compound, Table 3): 19% | CDK4 % Inhibition at 0.03 μM ([1]; 0.03 μM compound, Table 3): 43% | HCT-116 % Inhibition at 0.1 μM (HCT-116 cell line; [3]): 21% | HCT-116 % Inhibition at 0.25 μM (HCT-116 cell line; HCT-116, Table 3): 20%

CC(NC(=O)N1CCC(Nc2nc(N)c(C(=O)c3c(F)cccc3F)s2)CC1)c1ccccc1 (stereo not shown) [Example O28]
CDK2 % Inhibition At 0.03 μM (CDK2/Cyclin A; 0.03 μM compound, 0.03 µM): 27% | CDK4 % Inhibition at 0.03 μM ([1]; 0.03 μM compound, Table 2, 0.03 µM): 12% | HCT-116 % Inhibition at 0.25 μM (HCT-116 cell line; HCT-116, Table 2, 0.25 µM): 43%

Cc1cc(C)cc(CC(=O)N2CCC(Nc3nc(N)c(C(=O)c4c(F)cccc4F)s3)CC2)c1 [Example D10, 1-{4-[4-Amino-5-(2,6-difluoro-benzoyl)-thiazol-2-ylamino]piperidin-1-yl}-2-(3,5-dimethyl-phenyl)-ethanone]
Ki (CDK2/Cyclin A): 85 nM | Ki [1]: 62 nM | IC50 (HCT-116 cell line; first HCT-116 column (c4)): 60 nM | IC50 (HCT-116 cell line; second HCT-116 column (c5)): 200 nM

Nc1nc(NC2CCN(C(=O)[C@@H]3C[C@H]3c3ccccc3)CC2)sc1C(=O)c1c(F)cccc1F (relative stereo) [Example Q55]
CDK2 % Inhibition at 0.03 μM (CDK2/Cyclin A; 0.03 μM compound, Table 4): 29% | CDK4 % Inhibition at 0.03 μM ([1]; 0.03 μM compound, Table 4): 43% | HCT-116 % Inhibition at 0.1 μM (HCT-116 cell line; [2]): 10% | HCT-116 % Inhibition at 0.25 μM (HCT-116 cell line; HCT-116, Table 4): 31%

CC(C)(C)c1ccc(S(=O)(=O)N2CCC(Nc3nc(N)c(C(=O)c4c(F)cccc4F)s3)CC2)cc1 [Example P22]
CDK2 % Inhibition at 0.03 μM (CDK2/Cyclin A; 0.03 μM compound, Table 3): 29% | CDK4 % Inhibition at 0.03 μM ([1]; 0.03 μM compound, Table 3): 38% | HCT-116 % Inhibition at 0.1 μM (HCT-116 cell line; [3]): 27% | HCT-116 % Inhibition at 0.25 μM (HCT-116 cell line; HCT-116, Table 3): 31%

CC12CCC(C(=O)N3CCC(Nc4nc(N)c(C(=O)c5c(F)cccc5F)s4)CC3)(OC1=O)C2(C)C (stereo not shown) [Example R67]
CDK2 % Inhibition at 0.03 μM (CDK2/Cyclin A; at 0.03 μM): 11% | CDK4 % Inhibition at 0.03 μM ([1]; at 0.03 μM): 22% | HCT-116 % Inhibition at 0.1 μM (HCT-116 cell line; HCT-116 cells, at 0.1 μM): 4% | HCT-116 5 Inhibition at 0.25 μM (HCT-116 cell line; HCT-116 cells): 40

Nc1nc(NC2CCN(C(=O)Nc3cccc4ccccc34)CC2)sc1C(=O)c1c(F)cccc1F [Example O35]
CDK2 % Inhibition At 0.03 μM (CDK2/Cyclin A; 0.03 μM compound): 29% | CDK4 % Inhibition at 0.03 μM ([1]; 0.03 μM compound, Table 2): 5% | HCT-116 % Inhibition at 0.25 μM (HCT-116 cell line; HCT-116, Table 2): 0%

CN(C)CCCS(=O)(=O)N1CCC(Nc2nc(N)c(C(=O)c3c(F)cccc3F)s2)CC1 [Example K4, 1-(4-Amino-2-{1-[3-(dimethylamino)propane-1-sulfonyl]-piperidin-4-ylamino}-thiazol-5-yl)-1-(2,6-difluoro-phenyl)-methanone.]
Ki (CDK2/Cyclin A): 1.8 nM | Ki [1]: 1.3 nM | IC50 (HCT-116 cell line; first HCT-116 column (c4)): 410 nM | IC50 (HCT-116 cell line; second HCT-116 column (c5)): 1500 nM

CC(C)S(=O)(=O)N1CCC(Nc2nc(N)c(C(=O)c3c(F)cccc3F)s2)CC1 [Example P24]
CDK2 % Inhibition at 0.03 μM (CDK2/Cyclin A; 0.03 μM compound, Table 3): 5% | CDK4 % Inhibition at 0.03 μM ([1]; 0.03 μM compound, Table 3): 24% | HCT-116 % Inhibition at 0.1 μM (HCT-116 cell line; [3]): 26% | HCT-116 % Inhibition at 0.25 μM (HCT-116 cell line; HCT-116, Table 3): 36%

Nc1nc(NC2CCN(S(=O)(=O)c3ccc(OCCN4CCCC4)nc3)CC2)sc1C(=O)c1c(F)cccc1F [Example H5, 1-(4-Amino-2-{1-[6-(2-pyrrolidin-1-yl-ethoxy)-pyridine-3-sulfonyl]-piperidin-4-ylamino}-thiazol-5-yl)-1-(2,6-difluoro-phenyl)-methanone Trifluoroacetic Acid Salt]
Ki (CDK2/Cyclin A): 1.1 nM | Ki [1]: 0.39 nM | IC50 (HCT-116 cell line; first HCT-116 column (c4)): 71 nM | IC50 (HCT-116 cell line; second HCT-116 column (c5)): > 500 nM
